# Measured values from patent US20260013504A1, “HERBICIDAL MIXTURE, HERBICIDAL COMPOSITION, METHOD, USE, AND KITS FOR CONTROLLING UNDESIRABLE VEGETATION” (ADAMA AGAN LTD., priority 2022, published 2026).
# Experiments:
# Assay type in all cases: in vivo
# Galium aparine = experiment: Pot experiment, soil treatment, control of Galium aparine (fresh weight, Colby)
# Experimental: (§1) Referring to an article of Colby, S. R. i.e., Calculation of the synergistic and antagonistic response of herbicide combinations.
# (§2) E0-E value is calculated to evaluate the combined effect of pyroxasulfone and the second herbicide selected from the group consisting of fluorochloridone, aclonifen, diflufenican and terbutryn on the selected weeds.
# (§3) In this Example, the herbicidal activity of treatments by a mixture of pyroxasulfone and the second herbicide selected from the group consisting of fluorochloridone, aclonifen, diflufenican and terbutryn for controlling Aegilops tauschii was investigated by a pot experiment. This Example was carried out in accordance with “NY/T 1155.4-2006 Guidelines for Indoor Bioassay Tests of Pesticides, Herbicides Part 4: Activity Determination Tests, Stem and Leaf Spray Method”. • Source of the agrochemicals tested were: • Pyroxasulfone: pyroxasulfone (850g/Kg, WG) from Adama Agan LTD. • Fluorochloridone: fluorochloridone (250 g/L, EC) from Adama Agan LTD. • Aclonifen: aclonifen (600 g/L, SC) from Adama Agan LTD. • Diflufenican: diflufenican (50g/Kg, WP) from Bayer. • Terbutryn: terbutryn (50g/Kg, SC) from Zhejiang Zhongshan Chemical Industry Group Co., Ltd. • Cultivation of test materials: The test soil was formed by mixing the 20 cm layer loam on the ground surface and the culture medium in a ratio of 3:1 as cultivation soil. Weeds were cultivated in an artificial climate chamber. The daytime and nighttime temperatures were set at 22° C. and 19° C., respectively, and the illumination was set at daytime: dark time 12h: 12h.
# (§4) A certain amount of Aegilops tauschii seeds were sown in a plastic pot with a diameter of 9 cm, covering with 1-2 mm soil, and putting them in an enamel dish filled with water. The bottom infiltration method was used to water them, the agrochemicals tested in this Example were applied on the second day after sowing Aegilops tauschii seeds.
# (§5) Spraying treatment: ASS-4 automatic control spraying system with a fan-shaped nozzle was used indoors to spray the agrochemicals, the running speed was adjusted based on nozzle pressure, flow rate, etc. to spray 50 mL of liquid of agrochemicals on the actual spray area of 1.1 m2 (equivalent to 30 liters per mu), arranging the plastic pots to be processed on the spraying table evenly, and spraying evenly. The spraying pressure was 0.35 MPa, and the flow rate of the fan-shaped nozzle was 800 mL/min, spraying in order from low dosage to high dosage. Each treatment was repeated 3 times. After spraying, the plastic pots were dried for one day, placed in an artificial climate chamber, and watered regularly to keep moist.
# (§6) Weed investigation method and time: after applying the agrochemicals, the symptoms of weed damage (such as growth inhibition, chlorosis, deformity, etc.) were recorded in detail. After 35 days, the fresh weight of aerial part of the weeds in each treatment was weighed, and the measured fresh weight inhibition rate and the measured fresh weight survival rate for each treatment were calculated according to the following equations: […]
# Example 4 was conducted substantially the same way as Example 1, except that Galium aparine was used instead of Aegilops tauschii.
# Solanum nigrum = experiment: Pot experiment (glass greenhouse), soil treatment, control of Solanum nigrum (fresh weight, Colby)
# Experimental: as §1, §2, §3, §4, §5, §6
# Example 6 was substantially conducted in the same as Example 1, except that (1) Solanum nigrum was used instead of Aegilops tauschii, (2) in “Cultivation of test materials” part, Solanum nigrum was cultivated in a glass greenhouse instead of an artificial climate chamber at a temperature of 25 to 33° C. with a natural illumination, and (3) in “Spraying treatment” part, after spraying and drying, the plastic pots were placed in a glass greenhouse instead of an artificial climate chamber.
# Lithospermum arvense = experiment: Pot experiment, soil treatment, control of Lithospermum arvense (fresh weight, Colby)
# Experimental: as §1, §2, §3, §4, §5, §6
# Example 5 was conducted substantially the same way as Example 1, except that Lithospermum arvense was used instead of Aegilops tauschii.
# Lolium multiflorum Lamk = experiment: Pot experiment, soil treatment, control of Lolium multiflorum Lamk (fresh weight, Colby); settings: mixtures: both AIs at these rates, after 35 days
# Experimental: as §1, §2, §3, §4, §5, §6
# Example 2 was conducted in substantially the same way as Example 1, except that Lolium multiflorum Lamk was used instead of Aegilops tauschii.
# Aegilops tauschii = experiment: Pot experiment, soil treatment, control of Aegilops tauschii (fresh weight, Colby); settings: mixtures: both AIs at these rates, after 35 days
# Description: as §1
# E0 is the theoretical fresh weight survival rate for the mixture of pyroxasulfone and the second herbicide selected from the group consisting of fluorochloridone, aclonifen, diflufenican and terbutryn;
# X is the measured fresh weight survival rate for pyroxasulfone used alone at the same dosage as that in the mixture;
# Y is the measured fresh weight survival rate for the second herbicide selected from the group consisting of fluorochloridone, aclonifen, diflufenican and terbutryn used alone at the same dosage as that in the mixture;
# E is the measured fresh weight survival rate for the mixture of pyroxasulfone and the second herbicide selected from the group consisting of fluorochloridone, aclonifen, diflufenican and terbutryn.
# as §2, §3, §4, §5, §6
# Bromus japonicus = experiment: Pot experiment, soil treatment, control of Bromus japonicus (fresh weight, Colby); settings: mixtures: both AIs at these rates, after 35 days
# Experimental: as §1, §2, §3, §4, §5, §6
# Example 3 was conducted in substantially the same way as Example 1, except that Bromus japonicus was used instead of Aegilops tauschii.
# [1] = g ai/ha: pyroxasulfone 11.25, fluorochloridone 31.25, aclonifen 150, diflufenican 14.0625, terbutryn 140.625
# [2] = g ai/ha: pyroxasulfone 22.5, fluorochloridone 62.5, aclonifen 300, diflufenican 28.125, terbutryn 281.25
# [3] = g ai/ha: pyroxasulfone 45, fluorochloridone 125, aclonifen 600, diflufenican 56.25, terbutryn 562.5
# [4] = g ai/ha: pyroxasulfone 90, fluorochloridone 250, aclonifen 1200, diflufenican 112.5, terbutryn 1125
# [5] = g ai/ha: pyroxasulfone 180, fluorochloridone 500, aclonifen 2400, diflufenican 225, terbutryn 2250
# [6] = g ai/ha: pyroxasulfone 360, fluorochloridone 1000, aclonifen 4800, diflufenican 450, terbutryn 4500
substance,measurement,setting,value
3-chloro-4-(chloromethyl)-1-(3-(trifluoromethyl)phenyl)-2-pyrrolidione [fluorochloridone],Measured fresh weight inhibition rate (%),Galium aparine; 31.25 g ai/ha,63.0%
same,Measured fresh weight survival rate (%) - E,Galium aparine; 31.25 g ai/ha,37.0%
same,Measured fresh weight inhibition rate (%),Galium aparine; 62.5 g ai/ha,84.9%
same,Measured fresh weight survival rate (%) - E,Galium aparine; 62.5 g ai/ha,15.1%
same,Measured fresh weight inhibition rate (%),Galium aparine; 125 g ai/ha,93.2%
same,Measured fresh weight survival rate (%) - E,Galium aparine; 125 g ai/ha,6.8%
same,Measured fresh weight inhibition rate (%),Galium aparine; 250 g ai/ha,95.9%
same,Measured fresh weight survival rate (%) - E,Galium aparine; 250 g ai/ha,4.1%
same,Measured fresh weight inhibition rate (%),Galium aparine; 500 g ai/ha,100.0%
same,Measured fresh weight survival rate (%) - E,Galium aparine; 500 g ai/ha,0.0%
same,Measured fresh weight inhibition rate (%),Solanum nigrum; 31.25 g ai/ha,18.8%
same,Measured fresh weight survival rate (%) - E,Solanum nigrum; 31.25 g ai/ha,81.2%
same,Measured fresh weight inhibition rate (%),Solanum nigrum; 62.5 g ai/ha,32.5%
same,Measured fresh weight survival rate (%) - E,Solanum nigrum; 62.5 g ai/ha,67.5%
same,Measured fresh weight inhibition rate (%),Solanum nigrum; 125 g ai/ha,67.1%
same,Measured fresh weight survival rate (%) - E,Solanum nigrum; 125 g ai/ha,32.9%
same,Measured fresh weight inhibition rate (%),Solanum nigrum; 250 g ai/ha,99.6%
same,Measured fresh weight survival rate (%) - E,Solanum nigrum; 250 g ai/ha,0.4%
same,Measured fresh weight inhibition rate (%),Solanum nigrum; 500 g ai/ha,100.0%
same,Measured fresh weight survival rate (%) - E,Solanum nigrum; 500 g ai/ha,0.0%
same,Measured fresh weight inhibition rate (%),Lithospermum arvense; 31.25 g ai/ha,47.8%
same,Measured fresh weight survival rate (%) - E,Lithospermum arvense; 31.25 g ai/ha,52.2%
same,Measured fresh weight inhibition rate (%),Lithospermum arvense; 62.5 g ai/ha,97.1%
same,Measured fresh weight survival rate (%) - E,Lithospermum arvense; 62.5 g ai/ha,2.9%
same,Measured fresh weight inhibition rate (%),Lithospermum arvense; 125 g ai/ha,98.6%
same,Measured fresh weight survival rate (%) - E,Lithospermum arvense; 125 g ai/ha,1.4%
same,Measured fresh weight inhibition rate (%),Lithospermum arvense; 250 g ai/ha,100.0%
same,Measured fresh weight survival rate (%) - E,Lithospermum arvense; 250 g ai/ha,0.0%
same,Measured fresh weight inhibition rate (%),Lithospermum arvense; 500 g ai/ha,100.0%
same,Measured fresh weight survival rate (%) - E,Lithospermum arvense; 500 g ai/ha,0.0%
same,Measured fresh weight inhibition rate (%),Lolium multiflorum Lamk; [1],93.2%
same,Measured fresh weight survival rate (%) - E,Lolium multiflorum Lamk; [1],6.8%
same,Measured fresh weight inhibition rate (%),Lolium multiflorum Lamk; [2],96.4%
same,Measured fresh weight survival rate (%) - E,Lolium multiflorum Lamk; [2],3.6%
same,Measured fresh weight inhibition rate (%),Lolium multiflorum Lamk; [3],98.4%
same,Measured fresh weight survival rate (%) - E,Lolium multiflorum Lamk; [3],1.6%
same,Measured fresh weight inhibition rate (%),Lolium multiflorum Lamk; [4],100.0%
same,Measured fresh weight survival rate (%) - E,Lolium multiflorum Lamk; [4],0.0%
same,Measured fresh weight inhibition rate (%),Lolium multiflorum Lamk; [5],100.0%
same,Measured fresh weight survival rate (%) - E,Lolium multiflorum Lamk; [5],0.0%
same,Measured fresh weight inhibition rate (%),Lolium multiflorum Lamk; [6],100.0%
same,Measured fresh weight survival rate (%) - E,Lolium multiflorum Lamk; [6],0.0%
same,Measured fresh weight inhibition rate (%),Aegilops tauschii; [1],0.0%
same,Measured fresh weight survival rate (%) - E,Aegilops tauschii; [1],100.0%
same,Measured fresh weight inhibition rate (%),Aegilops tauschii; [2],7.9%
same,Measured fresh weight survival rate (%) - E,Aegilops tauschii; [2],92.1%
same,Measured fresh weight inhibition rate (%),Aegilops tauschii; [3],11.0%
same,Measured fresh weight survival rate (%) - E,Aegilops tauschii; [3],89.0%
same,Measured fresh weight inhibition rate (%),Aegilops tauschii; [4],49.4%
same,Measured fresh weight survival rate (%) - E,Aegilops tauschii; [4],50.6%
same,Measured fresh weight inhibition rate (%),Aegilops tauschii; [5],79.3%
same,Measured fresh weight survival rate (%) - E,Aegilops tauschii; [5],20.7%
same,Measured fresh weight inhibition rate (%),Aegilops tauschii; [6],93.9%
same,Measured fresh weight survival rate (%) - E,Aegilops tauschii; [6],6.1%
same,Measured fresh weight inhibition rate (%),Bromus japonicus; [1],94.8%
same,Measured fresh weight survival rate (%) - E,Bromus japonicus; [1],5.2%
same,Measured fresh weight inhibition rate (%),Bromus japonicus; [2],96.9%
same,Measured fresh weight survival rate (%) - E,Bromus japonicus; [2],3.1%
same,Measured fresh weight inhibition rate (%),Bromus japonicus; [3],100.0%
same,Measured fresh weight survival rate (%) - E,Bromus japonicus; [3],0.0%
same,Measured fresh weight inhibition rate (%),Bromus japonicus; [4],100.0%
same,Measured fresh weight survival rate (%) - E,Bromus japonicus; [4],0.0%
same,Measured fresh weight inhibition rate (%),Bromus japonicus; [5],100.0%
same,Measured fresh weight survival rate (%) - E,Bromus japonicus; [5],0.0%
